System: BEAS-2B cells
Test: WST-8 proliferation test, BEAS-2B cells at different FBS concentrations
Assay type: cell-based, human
Method: 10% FBS RPMI-1640 was used as the medium. […] Following medium replacement, 10 μl/well of EP solution was added. A proliferation test (WST-8 assay) was performed after 96 hours. The operations of the WST-8 assay were as follows.
(1) The medium was removed from the 96-well plate by decantation and tapping.
(2) WST-8 reagent (Dojindo) was mixed to a ratio of 1:10 with serum-free medium (RPMI-1640) that had been warmed in advance at 37° C., and added to the wells from which the medium had been removed.
(3) A color reaction was performed for 1 hour in a CO2 incubator, and absorbance at 450 nm and 650 nm was measured with an absorbance plate reader.
(4) Absorbance at 450 nm-absorbance at 650 nm was calculated for purposes of correction between plates.
(5) The average of the 4 blank wells was subtracted from the corrected value of all wells, and the result was given as the relative corresponding cell number.

NCCOP(=O)(O)O [EP, Ethanolamine phosphate]
proliferation of BEAS-2B cells (0-0.5% FBS, 96 hours): dependent on EP concentration
toxicity attributable to EP (high-concentration range (mM level)): no obvious toxicity
cell proliferation, ratio relative to control using 0 μM EP (medium contains no FBS, 96 hours): ≤ 11 times
